Measured values from US20240246964A1 (Arbutus Biopharma Corporation, priority 2021, published 2024).

Target: human PD-L1 (Homo sapiens (Human), UniProt Q9NZQ7)
Experiment: T cell activation luciferase reporter cell culture system (T Cell Activation Assay)
Assay type: cell-based
Conditions: luciferase reporter assay; PD-L1 aAPC/CHO-K1 cells with PD-1 effector Jurkat T cells

Sequence of human PD-L1 (Q9NZQ7 19-290): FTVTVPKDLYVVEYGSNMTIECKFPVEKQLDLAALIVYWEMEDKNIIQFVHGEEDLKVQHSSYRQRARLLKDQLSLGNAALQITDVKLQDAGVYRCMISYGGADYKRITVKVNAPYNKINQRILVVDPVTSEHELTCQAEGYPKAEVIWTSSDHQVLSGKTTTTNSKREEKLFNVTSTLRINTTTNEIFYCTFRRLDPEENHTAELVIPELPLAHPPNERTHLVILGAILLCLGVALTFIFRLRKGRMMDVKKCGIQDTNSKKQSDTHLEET

COc1cc(-c2nccc(-c3cccc(-c4ccc(CN5CC6(C5)CN(C(=O)CO)C6)c(OC)n4)c3Cl)c2Cl)ccc1CN1CC2(C1)CN(C(=O)CO)C2 [Example 667, 1-(6-((6-(2-Chloro-3-(3-chloro-2-(4-((6-(2-hydroxyacetyl)-2,6-diazaspiro[3.3]heptan-2-yl)methyl)-3-methoxyphenyl)pyridin-4-yl)phenyl)-2-methoxypyridin-3-yl)methyl)-2,6-diazaspiro[3.3]heptan-2-yl)-2-hydroxyethan-1-one] was tested. Which EC50 did it give?
Its EC50 is 66.1 nM.

How did the EC50 turn out when COc1cc(-c2nccc(-c3nccc(-c4ccc(CNC5CCN(C(C)=O)CC5)c(OC)n4)c3Cl)c2Cl)ccc1CNC1CCN(C(C)=O)CC1 [Example 668, 1-(4-((4-(5-(((1-acetylpiperidin-4-yl)amino)methyl)-3′,3″-dichloro-6-methoxy-[2,4′:2′,4″-terpyridin]-2″-yl)-2-methoxybenzyl)amino)piperidin-1-yl)ethan-1-one] was run?
The EC50 was 244 nM.

For COc1cc(-c2nccc(-c3cccc(-c4ccc(CN5CC6(CCN(CCO)C6)C5)c(OC)n4)c3Cl)c2Cl)ccc1CN1CC2(CCN(CCO)C2)C1 [Example 670, 2-(2-((6-(2-Chloro-3-(3-chloro-2-(4-((6-(2-hydroxyethyl)-2,6-diazaspiro [3.4]octan-2-yl)methyl)-3-methoxyphenyl)pyridin-4-yl)phenyl)-2-methoxypyridin-3-yl)methyl)-2,6-diazaspiro[3.4]octan-6-yl)ethan-1-ol], which EC50 is on record?
Its EC50 is 62.2 nM.

With COc1cc(-c2nccc(-c3cccc(-c4ccc(CN5CC6(CCN(C(C)=O)C6)C5)c(OC)n4)c3Cl)c2Cl)ccc1CN1CC2(CCN(C(C)=O)C2)C1 [Example 671, 1-(2-((6-(3-(2-(4-((6-Acetyl-2,6-diazaspiro[3.4]octan-2-yl)methyl)-3-methoxyphenyl)-3-chloropyridin-4-yl)-2-chlorophenyl)-2-methoxypyridin-3-yl)methyl)-2,6-diazaspiro[3.4]octan-6-yl)ethan-1-one] as the compound, how does the EC50 read?
The EC50 was 29.6 nM.

For COc1cc(-c2nccc(-c3cccc(NC(=O)c4ccc(CN5CC6(CNC(=O)C6)C5)cn4)c3Cl)c2Cl)ccc1CN1CC2(CNC(=O)C2)C1 [Example 672, N-(2-Chloro-3-(3-chloro-2-(3-methoxy-4-((7-oxo-2,6-diazaspiro[3.4]octan-2-yl)methyl)phenyl)pyridin-4-yl)phenyl)-5-((7-oxo-2,6-diazaspiro[3.4]octan-2-yl)methyl)picolinamide], which EC50 is on record?
Its EC50 is 217 nM.

With COc1cc(-c2nccc(-c3cccc(NC(=O)c4ccc(CNC5CCN(C(C)=O)CC5)cn4)c3Cl)c2Cl)ccc1CNC1CCN(C(C)=O)CC1 [Example 673, 5-(((1-Acetylpiperidin-4-yl)amino)methyl)-N-(3-(2-(4-(((1-acetylpiperidin-4-yl)amino)methyl)-3-methoxyphenyl)-3-chloropyridin-4-yl)-2-chlorophenyl)picolinamide] as the compound, how does the EC50 read?
Its EC50 is 234 nM.

Which EC50 does the source give for COc1cc(-c2nccc(-c3cccc(NC(=O)c4ccc(CNC5CCOCC5)cn4)c3Cl)c2Cl)ccc1CNC1CCOCC1 [Example 674, N-(2-Chloro-3-(3-chloro-2-(3-methoxy-4-(((tetrahydro-2H-pyran-4-yl)amino)methyl)phenyl)pyridin-4-yl)phenyl)-5-(((tetrahydro-2H-pyran-4-yl)amino)methyl)picolinamide] here?
The EC50 was 337 nM.

How did the EC50 turn out when COc1nc(-c2cccc(-c3ccnc(-c4ccc(CNC5CCN(C(C)=O)CC5)c(OC(F)F)c4)c3Cl)c2Cl)ccc1CN1CC2(C1)CN(C(C)=O)C2 [Example 690, 1-(4-((4-(4-(3-(5-((6-Acetyl-2,6-diazaspiro[3.3]heptan-2-yl)methyl)-6-methoxypyridin-2-yl)-2-chlorophenyl)-3-chloropyridin-2-yl)-2-(difluoromethoxy)benzyl)amino)piperidin-1-yl)ethan-1-one] was run?
The EC50 was 42.2 nM.

With COCC(=O)N1CC2(CN(Cc3ccc(-c4cccc(-c5ccnc(-c6ccc(CN7CC8(C7)CN(C(C)=O)C8)c(OC)c6)c5Cl)c4Cl)nc3OC)C2)C1 [Example 691, 1-(6-((6-(3-(2-(4-((6-Acetyl-2,6-diazaspiro[3.3]heptan-2-yl)methyl)-3-methoxyphenyl)-3-chloropyridin-4-yl)-2-chlorophenyl)-2-methoxypyridin-3-yl)methyl)-2,6-diazaspiro[3.3]heptan-2-yl)-2-methoxyethan-1-one] as the compound, how does the EC50 read?
The EC50 was 67.6 nM.

For COc1cc(-c2nccc(-c3cccc(-c4ccc(CN5CC6(CCN(C(C)=O)C6)C5)c(OC)n4)c3Cl)c2Cl)ccc1CN1CCC(O)CC1 [Example 692, 1-(2-((6-(2-Chloro-3-(3-chloro-2-(4-((4-hydroxypiperidin-1-yl)methyl)-3-methoxyphenyl)pyridin-4-yl)phenyl)-2-methoxypyridin-3-yl)methyl)-2,6-diazaspiro[3.4]octan-6-yl)ethan-1-one], which EC50 is on record?
Its EC50 is 43.5 nM.

With CNCc1ccc(C(=O)Nc2cccc(-c3ccnc(-c4ccc(CNC)c(OC)c4)c3Cl)c2Cl)nc1 [Example 694, N-(2-chloro-3-(3-chloro-2-(3-methoxy-4-((methylamino)methyl)phenyl)pyridine-4-yl)phenyl)-5-((methylamino)methyl)picolinamide] as the compound, how does the EC50 read?
Its EC50 is 69.7 nM.

COc1cc(-c2nccc(-c3cccc(NC(=O)c4ccc(CNC5CC6(COC6)C5)cn4)c3Cl)c2Cl)ccc1CNC1CC2(COC2)C1 (centres unmarked) [Example 695, 5-(((2-Oxaspiro[3.3]heptan-6-yl)amino)methyl)-N-(3-(2-(4-(((2-oxaspiro[3.3]heptan-6-yl)amino)methyl)-3-methoxyphenyl)-3-chloropyridin-4-yl)-2-chlorophenyl)picolinamide] was tested. Which EC50 did it give?
The EC50 was 169 nM.

Which EC50 does the source give for CNCc1ccc(C(=O)Nc2cccc(-c3ccnc(-c4ccc(CNC)c(OC)c4)c3Cl)c2C)nc1 [Example 696, N-(3-(3-Chloro-2-(3-methoxy-4-((methylamino)methyl)phenyl)pyridin-4-yl)-2-methylphenyl)-5-((methylamino)methyl)picolinamide] here?
Its EC50 is 244 nM.

How did the EC50 turn out when COc1nc(-c2cccc(-c3ccnc(-c4cc(OC)c5nc(CNCC6(O)CC6)nn5c4)c3Cl)c2Cl)ccc1CNC1CCN(C(C)=O)CC1 [Example 699, 1-(4-(((6-(2-chloro-3-(3-chloro-2-(2-((((1-hydroxycyclopropyl)methyl)amino)methyl)-8-methoxy-[1,2,4]triazolo[1,5-a]pyridin-6-yl)pyridin-4-yl)phenyl)-2-methoxypyridin-3-yl)methyl)amino)piperidin-1-yl)ethan-1-one] was run?
Its EC50 is 51.5 nM.

For COc1cc(-c2nccc(-c3cccc(NC(=O)c4ccc(CNCCO)cn4)c3C)c2Cl)ccc1CNC1CCN(C(C)=O)CC1 [Example 700, N-(3-(2-(4-(((1-Acetylpiperidin-4-yl)amino)methyl)-3-methoxyphenyl)-3-chloropyridin-4-yl)-2-methylphenyl)-5-(((2-hydroxyethyl)amino)methyl)picolinamide], which EC50 is on record?
Its EC50 is 124 nM.

With COc1cc(-c2nccc(-c3cccc(NC(=O)c4ccc(CN5CC6(COC6)C5)cn4)c3Cl)c2Cl)ccc1CN1CC2(COC2)C1 [Example 701, 5-((2-Oxa-6-azaspiro[3.3]heptan-6-yl)methyl)-N-(3-(2-(4-((2-oxa-6-azaspiro[3.3]heptan-6-yl)methyl)-3-methoxyphenyl)-3-chloropyridin-4-yl)-2-chlorophenyl)picolinamide] as the compound, how does the EC50 read?
Its EC50 is 410 nM.

For COc1cc(-c2nccc(-c3cccc(NC(=O)c4ccc(CNCCCF)cn4)c3Cl)c2Cl)ccc1CNCCCF [Example 702, N-(2-Chloro-3-(3-chloro-2-(4-(((3-fluoropropyl)amino)methyl)-3-methoxyphenyl)pyridin-4-yl)phenyl)-5-(((3-fluoropropyl)amino)methyl)picolinamide], which EC50 is on record?
Its EC50 is 266 nM.
